From patent publication US8592375B2, “Multifunctional context-activated protides and methods of use” (Los Angeles Biomedical Research Institute at Harbor-UCLA …, priority 2002, dated 2013)
Where two headings read alike, the source gives them in different places. Where a SMILES comes first, the peptide text is derived from it.

Key:
[1] = biological target: T1, staphylococcal V8 protease (Staphylococcus aureus, UniProt P0C1U8); assay: Cleavage (activation) of PT-1 by purified V8 protease in vitro, followed by analytical RP-HPLC and AU-PAGE; format: biochemical, S. aureus; conditions: in a time frame of minutes, fragments consistent with RP-1 and IL-8-like domains
T1 construct: purchased Sigma Chemical Co

[2] = tested on: S. aureus strains ISP479C and ISP479R; assay: Modified radial diffusion assay, S. aureus strains; format: cell-based; conditions: 5 ug per well, both S. aureus strains, regardless of intrinsic susceptibility or resistance
Source text: (§1) In order to assess the antimicrobial properties of PT-1, a panel of well-characterized test pathogens was used that included S. aureus strains ISP479C and ISP479R as described by Dhawan et al., Infect. Immun. 66:[…] (1998); Candida albicans strains 36082 (ATCC type strain 36082)and 36082R as described by Yeaman et al., Infect. Immun. 64:1379-1384 (1996); Salmonella typhimurium strains m5996s and 14028s as described by Fields et al., Science 243:1059-62 (1989); Yeaman et al., 38th Interscience Conference on Antimicrobial Agents and Chemotherapy (ICAAC), San Diego, Calif., Abstract No. F-170 (1999); and Bacillus subtilis strain ATCC 6633 as described by Yeaman et al., Infect. Immun. 60:1202-1209 (1992), each of which is incorporated herein by reference in its entirety.
(§2) In order to compare the antimicrobial activities of PT-1 with those of RP-1 against a panel of test pathogens, radial diffusion assay and a microtiter well assay were utilized.
(§3) Briefly, a modified radial diffusion assay was employed to compare the antimicrobial activities of PT-1 with RP-1 in a solid-phase matrix format. […] The assay plates were then incubated for 18 h at 37° C., after which zones of inhibition (in mm of diameter) were measured and recorded.

[3] = tested on: S. aureus strains ISP479C and ISP479R; format: cell-based
Source text: as §1
A microtiter well assay was also performed as a complement to the radial diffusion assay described above. In this assay, PT-1, RP-1, or V8 protease (Sigma Chemical Co.) were serially diluted from 100 ug (range, 100-0.20 ug/ml) and individually assessed for antimicrobial activity against S. aureus strains ISP479C and ISP479R as described above. In addition, this assay allowed for the evaluation of antimicrobial activities of combinations of PT-1 and V8, in conditions of constant or dynamic dilution of one or both agents. This latter approach enabled the determination of static as well as dynamic fractional inhibitory concentrations (FICs) of PT-1 in the presence and absence of purified V8 protease.

[4] = tested on: all organisms except S. aureus (Candida albicans, Salmonella typhimurium, Bacillus subtilis); assay: Modified radial diffusion assay, test pathogens other than S. aureus; format: cell-based; conditions: 5 ug per well, organisms that do not elaborate V8 protease
Source text: as §1, §2, §3

T1 sequence (P0C1U8 69-336): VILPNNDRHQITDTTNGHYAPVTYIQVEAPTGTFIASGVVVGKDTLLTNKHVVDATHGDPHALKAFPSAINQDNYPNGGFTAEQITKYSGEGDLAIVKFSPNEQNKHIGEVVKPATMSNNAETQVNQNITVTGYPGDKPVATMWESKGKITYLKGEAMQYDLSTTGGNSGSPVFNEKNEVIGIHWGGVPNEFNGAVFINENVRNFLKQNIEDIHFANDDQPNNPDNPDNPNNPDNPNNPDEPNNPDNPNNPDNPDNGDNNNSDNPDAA

## CC[C@H](C)[C@H](NC(=O)[C@H](CS)NC(=O)[C@H](CCC(N)=O)NC(=O)[C@H](CS)NC(=O)[C@H](CCCNC(=N)N)NC(=O)[C@H](CC(C)C)NC(=O)[C@H](CCC(=O)O)NC(=O)[C@H](CCCCN)NC(=O)[C@H](C)N)C(=O)N[C@@H](CCCCN)C(=O)N[C@H](C(=O)N[C@@H](Cc1ccc(O)cc1)C(=O)N[C@@H](CO)C(=O)N[C@@H](CCCCN)C(=O)N[C@@H](CCC(=O)O)C(=O)N[C@@H](C)C(=O)N[C@@H](CC(C)C)C(=O)N[C@@H](Cc1ccc(O)cc1)C(=O)N[C@@H](CCCCN)C(=O)N[C@@H](CCCCN)C(=O)N[C@@H](Cc1ccccc1)C(=O)N[C@@H](CCCCN)C(=O)N[C@@H](CCCCN)C(=O)N[C@@H](CCCCN)C(=O)N[C@@H](CC(C)C)C(=O)N[C@@H](CC(C)C)C(=O)N[C@@H](CCCCN)C(=O)N[C@@H](CO)C(=O)N[C@@H](CC(C)C)C(=O)N[C@@H](CCCCN)C(=O)N[C@@H](CCCNC(=N)N)C(=O)N[C@@H](CC(C)C)C(=O)NCC(=O)O)[C@@H](C)O [PT-1] (H-AKELRCQCIKTYSKEALYKKFKKKLLKSLKRLG-OH; N-terminus and C-terminus assumed)
[1]
  cleavage (activation) on exposure to purified V8 protease: cleaved (activated) into two separate fragments
[2]
  antimicrobial activity (zones of inhibition): activation and enhanced antimicrobial activity
[3]; PT-1 with V8 protease, considered synergistic
  FIC (fractional inhibitory concentration): < 0.5
[3]; co-incubated with V8 protease
  MIC: 3.1 µg/mL
[3]; with vs without purified V8 protease
  increased activity in the presence of purified V8 protease compared to its absence: ≥ 2 fold
[3]; without V8 protease
  MIC: 12.5 µg/mL
[4]
  antimicrobial activity compared with RP-1 (zones of inhibition): substantially less antimicrobial activity than RP-1
